Laboratory results published in ChEMBL document CHEMBL1137376 (J Med Chem, 2006).
The source made the active and inactive calls. No cut-off for these calls is given here. Non-standard residues stand in square brackets, D forms with d. Residues, ends and D or L forms follow the SMILES beside them. Phe(4-NH2) = Nc1ccc(C[C@H](N)C(=O)O)cc1

What was measured:
[1] = target: T1, Angiotensin II receptor (AT-1) type-1 (Rattus norvegicus, UniProt P29089+P25095); test: Displacement of [125I]Ang2 from AT1 receptor in rat liver membrane; assay type: cell membranes
T1 sequence (P29089 whole entry): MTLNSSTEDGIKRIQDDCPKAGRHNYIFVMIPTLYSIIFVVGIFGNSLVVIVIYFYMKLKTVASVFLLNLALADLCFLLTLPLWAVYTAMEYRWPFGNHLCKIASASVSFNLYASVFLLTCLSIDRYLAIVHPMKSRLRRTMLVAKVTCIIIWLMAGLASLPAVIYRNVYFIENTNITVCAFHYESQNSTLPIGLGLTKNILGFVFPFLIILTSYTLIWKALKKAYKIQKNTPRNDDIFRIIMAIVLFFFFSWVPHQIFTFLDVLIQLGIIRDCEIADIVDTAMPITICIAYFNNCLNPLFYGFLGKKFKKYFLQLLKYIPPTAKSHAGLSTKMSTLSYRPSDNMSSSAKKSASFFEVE
T1 sequence (P25095 whole entry): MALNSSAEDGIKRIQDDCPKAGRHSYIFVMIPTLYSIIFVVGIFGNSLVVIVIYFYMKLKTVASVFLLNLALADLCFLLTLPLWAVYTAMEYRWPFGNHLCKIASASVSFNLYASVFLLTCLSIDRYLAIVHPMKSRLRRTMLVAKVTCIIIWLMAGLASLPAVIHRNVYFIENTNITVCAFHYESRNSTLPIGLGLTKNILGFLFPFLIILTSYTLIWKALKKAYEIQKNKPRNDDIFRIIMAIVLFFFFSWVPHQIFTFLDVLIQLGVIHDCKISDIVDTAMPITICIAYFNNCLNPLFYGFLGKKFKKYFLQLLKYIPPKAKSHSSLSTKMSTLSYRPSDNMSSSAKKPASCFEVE

[2] = target: T2, Type-1 angiotensin II receptor (Oryctolagus cuniculus) (UniProt P34976); test: Agonist activity at AT1 receptor measured as contraction of rabbit thoracic aorta at 3.0 nM to 3.0 uM; assay type: functional, tissue-based
T2 sequence (whole entry): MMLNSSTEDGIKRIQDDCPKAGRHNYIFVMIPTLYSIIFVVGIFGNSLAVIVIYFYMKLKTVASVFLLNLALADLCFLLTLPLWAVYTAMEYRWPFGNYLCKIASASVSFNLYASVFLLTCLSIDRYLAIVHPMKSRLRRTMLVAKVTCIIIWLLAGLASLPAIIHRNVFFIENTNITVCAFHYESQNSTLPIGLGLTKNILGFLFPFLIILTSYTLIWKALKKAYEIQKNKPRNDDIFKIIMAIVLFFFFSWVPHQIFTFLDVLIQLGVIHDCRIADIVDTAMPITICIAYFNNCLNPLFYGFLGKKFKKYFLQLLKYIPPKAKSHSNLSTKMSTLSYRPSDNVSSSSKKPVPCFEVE

Ki [1] | Activity [2] | Structure (SMILES)
2108 nM | – | CC[C@H](C)[C@@H]1Nc2c(Cc3ccc(O)cc3)cc(NC(=O)[C@H](CCCN=C(N)N)NC(=O)[C@@H](N)CC(=O)O)cc2CN(CC(=O)N2CCC[C@H]2C(=O)N[C@@H](Cc2ccccc2)C(=O)O)C1=O
> 10000 nM | – | CC[C@H](C)[C@H](NC(=O)[C@H](Cc1ccc(O)cc1)NC(=O)[C@@H](NC(=O)[C@H](CCCN=C(N)N)NC(=O)[C@@H](N)CC(=O)O)C(C)C)C(=O)N[C@@H](Cc1ccc(N)cc1)C(=O)N1CCC[C@H]1C(=O)N[C@@H](Cc1ccccc1)C(=O)O (H-DRVYI[Phe(4-NH2)]PF-OH)
14.9 nM | inactive | CC[C@H](C)[C@@H]1Nc2c(Cc3ccc(O)cc3)cc(NC(=O)[C@@H](NC(=O)[C@H](CCCN=C(N)N)NC(=O)[C@@H](N)CC(=O)O)C(C)C)cc2CN(CC(=O)N[C@@H](Cc2c[nH]cn2)C(=O)N2CCC[C@H]2C(=O)N[C@@H](Cc2ccccc2)C(=O)O)C1=O
1668 nM | – | CC[C@H](C)[C@@H]1Nc2c(Cc3ccc(O)cc3)cc(NC(=O)[C@H](CCCN=C(N)N)NC(=O)[C@@H](N)CC(=O)O)cc2CN(CC(=O)N[C@@H](Cc2c[nH]cn2)C(=O)N2CCC[C@H]2C(=O)N[C@@H](Cc2ccccc2)C(=O)O)C1=O
